These results are taken from patent US9604988B2, “Agent for treating or inhibiting recurrence of acute myeloid leukemia” (RIKEN, priority 2012, dated 2017).

The target of one test is HCK (Homo sapiens, UniProt P08631). Description: HCK kinase inhibition. The class given is biochemical.
A further test deals with T1, FLT3-ITD (Homo sapiens, UniProt P36888, ITD).
T1 sequence (P36888 27-993): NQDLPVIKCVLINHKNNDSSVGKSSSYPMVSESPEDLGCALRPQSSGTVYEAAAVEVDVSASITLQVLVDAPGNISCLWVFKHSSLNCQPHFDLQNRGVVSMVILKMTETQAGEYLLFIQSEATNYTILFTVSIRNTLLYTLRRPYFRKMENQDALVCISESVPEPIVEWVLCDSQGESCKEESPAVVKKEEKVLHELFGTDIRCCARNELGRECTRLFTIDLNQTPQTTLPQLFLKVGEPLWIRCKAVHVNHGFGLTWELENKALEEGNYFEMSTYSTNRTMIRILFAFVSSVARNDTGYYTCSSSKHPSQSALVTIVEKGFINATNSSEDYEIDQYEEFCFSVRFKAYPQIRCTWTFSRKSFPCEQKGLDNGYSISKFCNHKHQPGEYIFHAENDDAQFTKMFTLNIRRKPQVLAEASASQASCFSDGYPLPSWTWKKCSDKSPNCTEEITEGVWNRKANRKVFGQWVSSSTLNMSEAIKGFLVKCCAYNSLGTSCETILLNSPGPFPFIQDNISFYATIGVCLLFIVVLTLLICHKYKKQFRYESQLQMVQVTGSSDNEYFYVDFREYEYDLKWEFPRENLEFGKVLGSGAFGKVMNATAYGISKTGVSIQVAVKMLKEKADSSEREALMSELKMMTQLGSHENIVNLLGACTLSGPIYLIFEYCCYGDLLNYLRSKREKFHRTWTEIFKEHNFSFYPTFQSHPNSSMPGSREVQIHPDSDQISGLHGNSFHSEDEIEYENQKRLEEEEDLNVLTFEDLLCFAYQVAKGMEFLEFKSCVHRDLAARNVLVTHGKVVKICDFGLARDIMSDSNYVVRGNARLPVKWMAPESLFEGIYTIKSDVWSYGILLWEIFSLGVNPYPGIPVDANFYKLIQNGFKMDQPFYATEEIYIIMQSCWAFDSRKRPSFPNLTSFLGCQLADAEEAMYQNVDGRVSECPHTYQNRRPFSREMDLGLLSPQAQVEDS
Description: FLT3-ITD kinase inhibition. The class given is biochemical.

Counter-ions that a name gives are not always drawn.

Chain of HCK (P08631 whole entry): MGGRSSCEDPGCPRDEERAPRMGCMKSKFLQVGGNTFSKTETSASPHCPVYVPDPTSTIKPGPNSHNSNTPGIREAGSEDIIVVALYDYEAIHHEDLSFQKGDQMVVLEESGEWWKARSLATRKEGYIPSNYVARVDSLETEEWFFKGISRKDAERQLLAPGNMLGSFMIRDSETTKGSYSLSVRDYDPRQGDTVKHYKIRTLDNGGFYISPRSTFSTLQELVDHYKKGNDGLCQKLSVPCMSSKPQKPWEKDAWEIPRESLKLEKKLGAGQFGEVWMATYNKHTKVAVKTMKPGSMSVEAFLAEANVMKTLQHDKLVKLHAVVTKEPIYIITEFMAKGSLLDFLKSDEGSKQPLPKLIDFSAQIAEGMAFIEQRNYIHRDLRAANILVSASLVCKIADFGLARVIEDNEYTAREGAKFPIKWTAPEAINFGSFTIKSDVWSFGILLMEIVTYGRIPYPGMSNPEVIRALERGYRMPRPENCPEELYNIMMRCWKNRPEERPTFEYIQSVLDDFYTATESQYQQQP

What is called IC50 is the concentration that inhibits the measured activity by half. Low values mean inhibition by little substance, high ones a need for much substance. Turning to `Nc1ncnc2c1c(-c1ccc(Oc3ccccc3)cc1)cn2[C@H]1CC[C@H](NCC(=O)O)CC1` [Example 3, 2-(((trans)-4-(4-Amino-5-(4-phenoxyphenyl)-7H-pyrrolo[2,3-d]pyrimidin-7-yl)cyclohexyl)amino)acetic acid.trihydrochloride], the IC50 came out at 4.2 nM on HCK and 24 nM against FLT3-ITD. On to `Nc1ncnc2c1c(-c1ccc(Oc3ccccc3)cc1)cn2[C@H]1CC[C@@H](NCc2ccncc2)CC1` [Example 5, 5-(4-phenoxyphenyl)-7-((cis)-4-((pyridin-4-ylmethyl)amino)cyclohexyl)-7H-pyrrolo[2,3-d]pyrimidin-4-amine], for which the IC50 against FLT3-ITD was 6.6 nM. Turning to `Nc1ncnc2c1c(-c1ccc(Oc3ccccc3)cc1)cn2[C@H]1CC[C@@H](NCC(=O)O)CC1` [Example 9, 2-(((cis)-4-(4-Amino-5-(4-phenoxyphenyl)-7H-pyrrolo[2,3-d]pyrimidin-7-yl)cyclohexyl)amino)acetic acid.trihydrochloride], the IC50 against HCK stood at 16 nM; on FLT3-ITD, 23 nM.

On to `NC(=O)CN[C@H]1CC[C@@H](n2cc(-c3ccc(Oc4ccccc4)cc3)c3c(N)ncnc32)CC1` [Example 10, 2-(((cis)-4-(4-Amino-5-(4-phenoxyphenyl)-7H-pyrrolo[2,3-d]pyrimidin-7-yl)cyclohexyl)amino)acetamide], for which, at FLT3-ITD, 23 nM corresponded to half-maximal inhibition (IC50). Still for that read-out and setting: next, `NC(=O)CN[C@H]1CC[C@H](n2cc(-c3ccc(Oc4ccccc4)cc3)c3c(N)ncnc32)CC1` [Example 11, 2-(((trans)-4-(4-Amino-5-(4-phenoxyphenyl)-7H-pyrrolo[2,3-d]pyrimidin-7-yl)cyclohexyl)amino)acetamide]: 23 nM. On to `Nc1ncnc2c1c(-c1ccc(Oc3ccccc3)cc1)cn2[C@H]1CC[C@@H](NC(=O)c2ccncc2)CC1` [Example 12, N-((cis)-4-(4-5-(4-Phenoxyphenyl)-7H-pyrrolo[2,3-d]pyrimidin-7-yl)cyclohexyl)isonicotinamide], for which the IC50 at HCK was found to be 4 nM; at FLT3-ITD, 44 nM. For `CC(C)(C)N1CCN([C@H]2CC[C@H](n3cc(-c4ccc(Oc5ccccc5)cc4)c4c(N)ncnc43)CC2)CC1` [Example 13, 7-((trans)-4-(4-(tert-Butyl)piperazin-1-yl)cyclohexyl)-5-(4-phenoxyphenyl)-7H-pyrrolo[2,3-d]pyrimidin-4-amine] the same measures were 8 nM and 17 nM. For `COc1cc(-c2nn([C@H]3CC[C@H](N4CCN(C)CC4)CC3)c3ncnc(N)c23)ccc1NC(=O)c1cc2ccccc2n1C` [Example 14, N-(4-(4-amino-1-((trans)-4-(4-methylpiperazin-1-yl)cyclohexyl)-1H-pyrazolo[3,4-d]pyrimidin-3-yl)-2-methoxyphenyl)-1-methyl-1H-indole-2-carboxamide] the same measures were 0.77 nM and 2750 nM. `COc1cc(-c2cn([C@H]3CC[C@@H](N4CCn5c(C)nnc5C4)CC3)c3ncnc(N)c23)ccc1NC(=O)c1cc2ccccc2n1C` [Example 16, N-(4-(4-amino-7-((cis)-4-(3-methyl-5,6-dihydro[1,2,4]triazolo[4,3-a]pyrazin-7(8H)-yl)cyclohexyl)-7H-pyrrolo[2,3-d]pyrimidin-5-yl)-2-methoxyphenyl)-1-methyl-1H-indole-2-carboxamidamide] came in with an IC50 against HCK of 4.9 nM. In the case of `CN1CCN([C@H]2CC[C@H](n3cc(-c4ccc(NC(=O)c5cc6ccccc6n5C)cc4)c4c(N)ncnc43)CC2)CC1` [Example 17, N-(4-(4-amino-7-((trans)-4-(4-methylpiperazin-1-yl)cyclohexyl)-7H-pyrrolo[2,3-d]pyrimidin-5-yl)phenyl)-1-methyl-1H-indole-2-carboxamide], the figures for the IC50 against HCK and against FLT3-ITD were 2.55 nM and 255 nM, respectively. For `Nc1ncnc2c1c(-c1ccc(Oc3ccccc3)cc1)cn2[C@H]1CC[C@H](NC(=O)c2ccccn2)CC1` [Example 18, N-((trans)-4-(4-amino-5-(4-phenoxyphenyl)-7H-pyrrolo[2,3-d]pyrimidin-7-yl)cyclohexyl)picolinamide] the same measures were 4.55 nM and 428 nM. As to `Nc1ncnc2c1c(-c1ccc(Oc3ccccc3)cc1)cn2[C@H]1CC[C@H](NC(=O)c2cccnc2)CC1` [Example 19, N-((trans)-4-(4-amino-5-(4-phenoxyphenyl)-7H-pyrrolo[2,3-d]pyrimidin-7-yl)cyclohexyl)nicotinamide], the IC50 at HCK came out at 11.9 nM; against FLT3-ITD, 108 nM. For `Nc1ncnc2c1c(-c1ccc(Oc3ccccc3)cc1)nn2[C@H]1CC[C@H](NC(=O)c2ccncc2)CC1` [Example 20, N-((trans)-4-(4-amino-3-(4-phenoxyphenyl)-1H-pyrazolo[3,4-d]pyrimidin-1-yl)cyclohexyl)isonicotinamide] the same measures were 7.9 nM and 414 nM. For `Nc1ncnc2c1c(-c1ccc(Oc3ccccc3)cc1)nn2[C@H]1CC[C@H](NC(=O)c2ccccn2)CC1` [Example 23, N-((trans)-4-(4-amino-3-(4-phenoxyphenyl)-1H-pyrazolo[3,4-d]pyrimidin-1-yl)cyclohexyl)picolinamide] the same measures were 12 nM and 548 nM.

As for `COc1cc(-c2cn([C@H]3CC[C@@H](N4CCN(C)CC4)CC3)c3ncnc(N)c23)ccc1NC(=O)c1cc2ccccc2n1C` [Example 26, N-(4-(4-amino-7-((cis)-4-(4-methylpiperazin-1-yl)cyclohexyl)-7H-pyrrolo[2,3-d]pyrimidin-5-yl)-2-methoxyphenyl)-1-methyl-1H-indole-2-carboxamide], the half-maximal inhibitory concentration (IC50) against HCK is 7.2 nM; at FLT3-ITD, 1330 nM.

For `CN1CCN([C@H]2CC[C@H](n3nc(-c4ccc(NC(=O)c5cc6ccccc6n5C)cc4)c4c(N)ncnc43)CC2)CC1` [Example 28, N-(4-(4-amino-1-((trans)-4-(4-methylpiperazin-1-yl)cyclohexyl)-1H-pyrazolo[3,4-d]pyrimidin-3-yl)phenyl)-1-methyl-1H-indole-2-carboxamide], the IC50 against HCK stood at 1.6 nM; on FLT3-ITD, 1080 nM.

At HCK, `COc1cc(-c2cn([C@H]3CC[C@H](N4CCn5c(nnc5C(F)(F)F)C4)CC3)c3ncnc(N)c23)ccc1NC(=O)c1cc2ccccc2n1C` [Example 30, N-(4-(4-amino-7-((trans)-4-(3-(trifluoromethyl)-5,6-dihydro[1,2,4]triazolo[4,3-a]pyrazin-7(8H)-yl)cyclohexyl)-7H-pyrrolo[2,3-d]pyrimidin-5-yl)-2-methoxyphenyl)-1-methyl-1H-indole-2-carboxamide] came in with an IC50 of 7.7 nM. The same measure, in the same setting: as for `CCc1nnc2n1CCN([C@H]1CC[C@@H](n3cc(-c4ccc(NC(=O)c5cc6ccccc6n5C)c(OC)c4)c4c(N)ncnc43)CC1)C2` [Example 31, N-(4-(4-amino-7-((cis)-4-(3-ethyl-5,6-dihydro[1,2,4]triazolo[4,3-a]pyrazin-7(8H)-yl)cyclohexyl)-7H-pyrrolo[2,3-d]pyrimidin-5-yl)-2-methoxyphenyl)-1-methyl-1H-indole-2-carboxamide], the figure is 11 nM; as for `CCc1nnc2n1CCN([C@H]1CC[C@H](n3cc(-c4ccc(NC(=O)c5cc6ccccc6n5C)c(OC)c4)c4c(N)ncnc43)CC1)C2` [Example 32, N-(4-(4-amino-7-((trans)-4-(3-ethyl-5,6-dihydro[1,2,4]triazolo[4,3-a]pyrazin-7(8H)-yl)cyclohexyl)-7H-pyrrolo[2,3-d]pyrimidin-5-yl)-2-methoxyphenyl)-1-methyl-1H-indole-2-carboxamide], 14 nM; as for `COc1cc(-c2cn([C@H]3CC[C@@H](N4CCn5c(nnc5C(C)C)C4)CC3)c3ncnc(N)c23)ccc1NC(=O)c1cc2ccccc2n1C` [Example 33, N-(4-(4-amino-7-((cis)-4-(3-isopropyl-5,6-dihydro[1,2,4]triazolo[4,3-a]pyrazin-7(8H)-yl)cyclohexyl)-7H-pyrrolo[2,3-d]pyrimidin-5-yl)-2-methoxyphenyl)-1-methyl-1H-indole-2-carboxamide], 7.7 nM. Same read-out and setting: as for `COc1cc(-c2cn([C@H]3CC[C@H](N4CCn5c(nnc5C(C)C)C4)CC3)c3ncnc(N)c23)ccc1NC(=O)c1cc2ccccc2n1C` [Example 34, N-(4-(4-amino-7-((trans)-4-(3-isopropyl-5,6-dihydro[1,2,4]triazolo[4,3-a]pyrazin-7(8H)-yl)cyclohexyl)-7H-pyrrolo[2,3-d]pyrimidin-5-yl)-2-methoxyphenyl)-1-methyl-1H-indole-2-carboxamide], the figure is 7.7 nM. In turn, `Nc1ncnc2c1c(-c1ccc(Oc3ccccc3)cc1)cn2[C@H]1CC[C@H](N[C@H]2CCNC2=O)CC1` [Example 54, (S)-3-(((trans)-4-(4-amino-5-(4-phenoxyphenyl)-7H-pyrrolo[2,3-d]pyrimidin-7-yl)cyclohexyl)amino)pyrrolidin-2-one] yielded an IC50 against FLT3-ITD of 25 nM.
